The text below walks through data of patent publication US5556856A, “Phthalazinone derivatives that modulate multi-drug resistance” (Asta Medica Aktiengesellschaft, priority 1992, dated 1996).

The term ED50 denotes the dose that gives a 50% effect, or the effect in half of the subjects.

For one assay, the system named is inflammation pain. As to the kind of experiment: Randall-Selitto inflammation pain test (IRS). It is filed as in vivo. To be noted: rat; for Analgesic effect in test model IRS: 10 mg/kg p.o.; for ED50: po, read-out: Analgesic effect in test model IRS, ED50. On the procedure: (§1) The peripheral analgesic effect was shown in the model of the Writhing Test (IWRAC) and in the model of the Randall-Selitto inflammation pain test (IRS).
^b IRS = RandallSelitto inflammation pain test. Data in % refer to a
dose or 10 mg/kg p.o. (rat). The ED50 values are given in mg/kg.

A further assay has as its system left atrial myocardium. The experiment in a line: Antiarrhythmic properties in rabbit cardiac preparations, left atrial myocardium. Particulars: Oryctolagus cuniculus, 1 h, 60 minutes; for activation at 10 µM: left atrial myocardium; for inhibition at 10 µM: left auricle, read-out: Contractility, change in percentage from control. The protocol: (§2) The antiarrhythmic effect was tested by the following experimental procedure:
(§3) Twenty young rabbits of mixed breed and either sex, weighing 1475±75 g (mean±S.E.), were used. The animals were sacrificed by a blow on the head, their heart was isolated and the left atrium, a strip of the anterior free wall of the right ventricle, as well as one of the papillary muscles of the right ventricle were dissected and pinned to the bottom (`non-toxic` rubber) of a thermostated organic bath, containing modified Locke's solution. The composition of the solution was the following: Na^+ 140; K^+ 5.63; Ca^2+ 2.17; glucose 11, HCO3 25; CL 125; total 309 mmol/l, pH 7.4. Continuous stirring and oxygenation of the solution were maintained by the bubbling of a mixture of 95% O2 and 5% CO2. The temperature of the organ bath was kept at 32° C. The isolated left atrium, papillary muscle and the strip prepared from the anterior free wall of the right ventricle were electrically paced by rectangular electric impulses of 1 msec duration, twice-threshold intensity and a 100 per min frequency. During the experiments the following electro-physiological parameters were determined: electrical threshold, effective refractory period and conduction time. The effective refractory period (i.e. the least interval between two successive electro-mechanical responses) was measured by applying a threefold-threshold test stimulus (1 msec, square waves) delivered from a DISA Multistim at various times following the pacing impulse. Conduction time was measured on an oscilloscope (Tektronis 2230) as a distance (i.e. time) between the artifact of the pacing stimulus and the appearance of the subsequent surface potential recorded via bipolar platinum electrodes. The auxotonically measured contractility (maximum contractile force) was also followed (papillary muscle, left atrium).
(§4) After a 60 min equilibrium in the control solution, the preparations were exposed to 10 μM of the test substance for a period of 60 min. Except for the effect on the effective refractory periods (determined at the 30th and 60th min only) all the other parameters were measured in every 15th min, i.e. four times in the presence of a given concentration of the compound examined.
(§5) The values given in the Tables and Figures are means ±S.E. The effect of compounds on the various parameters was estimated statistically by the t-test (Student-Welch); P values<0.05 were regarded as significant.
(§6) Antiarrhythmic properties in rabbit cardiac
(§7) incubation time with drugs 60 minutes
(§8) change in percentage from control

Assay [1] has as its system right ventricular papillary muscle. The experiment in a line: Antiarrhythmic properties in rabbit cardiac preparations, right ventricular papillary muscle. To be noted: Oryctolagus cuniculus, 1 h, 60 minutes; for inhibition at 10 µM: papillary muscle, read-out: Contractility, change in percentage from control; for activation at 10 µM: right ventricular papillary muscle. The protocol: as §2, §3, §4, §5, §6, §7, §8

The next assay has as its system right anterior free wall. As to the kind of experiment: Antiarrhythmic properties in rabbit cardiac preparations, right anterior free wall. Particulars: Oryctolagus cuniculus, 1 h, 60 minutes, read-out: Electrical threshold, change in percentage from control. The protocol: as §2
as §3, with “The isolated left atrium, papillary muscle and the strip prepared from the anterior free wall of the right ventricle were electrically paced by rectangular electric impulses of 1 msec duration, twice-threshold intensity and a 100 per min frequency.” left out
(§9) After a 60 min equilibrium in the control solution, the preparations were exposed to 10 μM of the test substance for a period of 60 min. Except for the effect on the effective refractory periods (determined at the 30th and 60th min only) all the other parameters were measured in every 15th min, i.e. four times in the presence of a given concentration of the compound examined. […]

The subject of assay [2] is right anteior papillary muscle. The experiment in a line: Antiarrhythmic properties in rabbit cardiac preparations, right anterior papillary muscle (conduction time). Particulars: Oryctolagus cuniculus, 1 h, 60 minutes, read-out: Conduction time, change in percentage from control. On the procedure:
as §2
as §3, with “The isolated left atrium, papillary muscle and the strip prepared from the anterior free wall of the right ventricle were electrically paced by rectangular electric impulses of 1 msec duration, twice-threshold intensity and a 100 per min frequency.” left out
as §9

Assay [3] has as its system acetic acid induced writhing. As to the kind of experiment: Acetic acid induced Writhing Test (IWRAC). The assay is classed as in vivo. To be noted: mouse; for ED50: po, read-out: Analgesic effect in test model IWRAC, ED50; for Analgesic effect in test model IWRAC: 6 mg/kg p.o. The protocol:
as §1
^a IWRAC = Acetic acid induced Writhing Test. Data in % refer to a
dose of 6 mg/kg p.o. (mouse). The ED50 values are given in mg/kg.
(In general: In writhing tests, fewer writhes than in controls are read as antinociception.)

Setting [4] is: read-out: Conduction time, change in percentage from control.
Setting [5] is: read-out: Effective refractory period, change in percentage from control.
[6] abbreviates: read-out: Electrical threshold, change in percentage from control.

SMILES strings stand for the structures. Read-outs that look alike come from different tables or passages of the source.

In the case of `O=c1c2ccccc2c(Cc2ccco2)nn1C1CCCN(CCc2ccccc2)CC1` (centres unmarked), the “Analgesic effect in test model IRS” value with inflammation pain stood at 40%.
Consider `CN1[C@@H]2CC[C@H]1C[C@@H](OC(=O)c1c[nH]c3ccccc13)C2` [ICS-205930], for which the activation at 10 µM came out at 57% in the assay with left atrial myocardium (setting [4]); 26% with left atrial myocardium (setting [5]); 51% in the assay on left atrial myocardium (setting [6]); 21% in assay [1] (setting [5]); 34% in assay [1] (setting [6]); 51% in the assay on right anterior free wall. Besides, in assay [2], the activation at 10 µM was 111%. Also, the inhibition at 10 µM in the assay with left atrial myocardium was determined as 33%; in assay [1], 29%.
`O=c1c2ccccc2c(Cc2ccc(F)cc2)nn1C1CN2CCC1CC2` (centres unmarked) [4-F-Phenyl 3-Chinuclidyl]: the figures for the ED50 (with inflammation pain; in assay [3]) were 1.5 mg/kg and 4.6 mg/kg, respectively.
For the compound `O=c1c2ccccc2c(Cc2ccc(Cl)cc2)nn1C1CCCN(CCc2ccccc2)CC1` (centres unmarked), the “Analgesic effect in test model IRS” value with inflammation pain is reported as 77%. For the same compound, in assay [3], the “Analgesic effect in test model IWRAC” value stood at 91%.
Regarding `CN1CCCC(n2nc(Cc3ccc(Cl)cc3)c3ccccc3c2=O)CC1` (centres unmarked) [Azelastine], the activation at 10 µM amounted to 40% with left atrial myocardium (setting [4]); 12% in the assay with left atrial myocardium (setting [5]); 25% in the assay on left atrial myocardium (setting [6]); 9% in assay [1] (setting [5]); 22% in assay [1] (setting [6]); 29% in the assay on right anterior free wall. Moreover, the activation at 10 µM in assay [2] was determined as 50%.
For `O=c1c2ccccc2c(Cc2ccc(F)cc2)nn1C1CCN(CCCc2ccc(F)cc2)CC1`, the “Analgesic effect in test model IRS” value in the assay on inflammation pain was 52%. The “Analgesic effect in test model IWRAC” value in assay [3] was 67%.
`O=c1c2ccccc2c(Cc2ccc(F)cc2)nn1C1CCCN(CCc2ccccc2)CC1` (racemic) [D-18024]: the activation at 10 µM is 91% in the assay with left atrial myocardium (setting [4]); 66% with left atrial myocardium (setting [5]); 12% in the assay with left atrial myocardium (setting [6]); 7% in assay [1] (setting [5]); 29% in assay [1] (setting [6]); -1% in the assay on right anterior free wall. Besides, the activation at 10 µM in assay [2] is 103%. In addition, the results for the inhibition at 10 µM (in the assay with left atrial myocardium; in assay [1]) were 39% and 48%, respectively.
`O=c1c2ccccc2c(Cc2ccc(F)cc2)nn1C1CCN(CCCc2ccccc2)CC1`: in the assay on inflammation pain, the “Analgesic effect in test model IRS” value is 67%. Further, the “Analgesic effect in test model IWRAC” value in assay [3] was found to be 77%.
Regarding `O=c1c2ccccc2c(Cc2ccccc2Cl)nn1C1CCCN(CCc2ccccc2)CC1` (centres unmarked), the results for the ED50 (with inflammation pain; in assay [3]) were 4.7 mg/kg and 4.1 mg/kg, respectively.
As for `CCOC(=O)CCN1CCC(n2nc(Cc3ccc(Cl)cc3)c3ccccc3c2=O)CC1`, the “Analgesic effect in test model IRS” value in the assay on inflammation pain came to 50%. For the same compound, the “Analgesic effect in test model IWRAC” value in assay [3] is listed as 67%.
Turning to `O=c1c2ccccc2c(Cc2ccccc2)nn1C1CN2CCC1CC2` (centres unmarked) [Phenyl 3-Chinuclidyl], the ED50 in the assay on inflammation pain amounted to 1.5 mg/kg; in assay [3], 3 mg/kg.
Consider `O=c1c2ccccc2c(Cc2ccc(F)cc2)nn1C1CCCN(CCc2ccccc2)CC1` (centres unmarked), for which, in the assay with inflammation pain, the “Analgesic effect in test model IRS” value is 54%. Besides, in assay [3], the median effective dose (ED50) came out at 2.7 mg/kg.
Regarding `O=c1c2ccccc2c(Cc2ccc(F)cc2)nn1C1CCCN(Cc2ccccc2)CC1` (centres unmarked), the “Analgesic effect in test model IRS” value in the assay on inflammation pain stood at 53%. In assay [3], the “Analgesic effect in test model IWRAC” value came out at 75%.
